Data on 23 molecules can be found in patent US20230227427A1, “IL-17A MODULATORS” (SANOFI, priority 2010, published 2023).

The target in this assay is T1, human recombinant IL-17A (Homo sapiens, UniProt Q16552).
T1 construct: purchased R&D Systems 7955-IL/CF
T1 sequence (Q16552 24-155): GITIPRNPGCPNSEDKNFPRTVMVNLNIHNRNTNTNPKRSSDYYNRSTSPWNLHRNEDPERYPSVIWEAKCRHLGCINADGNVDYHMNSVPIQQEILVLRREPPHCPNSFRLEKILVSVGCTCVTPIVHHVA
Put plainly: IL-17A AlphaLISA assay (block binding of IL-17A to its receptor IL-17RA). The settings on record: read-out: AlphaLISA pIC50 (converted). As to the method: The ability of the compounds to block binding of IL-17A to its receptor, IL-17RA, was analysed in a competition assay using AlphaLISA technology (Perkin Elmer). The assay is a bead based AlphaLISA where the IL-17RA is captured on the acceptor bead via an Fc tag and IL-17A is captured on the streptavidin donor bead via a biotinylated anti-IL17A antibody.
Assay buffer was prepared by adding 0.05% Tween-20 (v/v) and 0.1% BSA to Phosphate Buffered Saline (PBS). The assay was carried out in 384-well white low volume plates (Corning 4512). 10 µL of a 7.5 nM stock of human recombinant IL-17A (R&D Systems 7955-IL/CF) diluted in assay buffer was dispensed into the assay plate and compounds or DMSO vehicle control were added in a volume of 75 nL using a D300 dispenser (Hewlett Packard). The compounds were pre-incubated with the IL-17A for 24 h at room temperature (or for 30 min, where indicated by * in Table A below) prior to addition of 5 μL of a 5 nM stock of human recombinant IL-17RA/Fc chimera (R&D Systems 177-IR-100) diluted in assay buffer. The IL-17A was incubated with the receptor for a further 90 minutes at room temperature before addition of 5 μL of a mixture of anti-human Fc IgG acceptor beads (75 μg/mL, Perkin Elmer AL103C) and anti-IL-17A biotin conjugated antibody (5 nM, Enzo Life Sciences, ENZ-ABS278-0100) in assay buffer. After a further 30 min incubation at room temperature, 5 μL of streptavidin donor beads ([…], Perkin Elmer 6760002S) were added and the plate was incubated for 3 h in the dark.
The luminescence signal was measured using an Enspire plate reader (Perkin Elmer) with excitation at 680 nm and emission at 615 nm. Data were analysed using GraphPad Prism and fitted to a 4-parameter logistic equation. The IC50 values were calculated using the DMSO vehicle as the negative control and a high concentration (6 μM) of a reference IL-17A inhibitor as the positive control.
Activity of the Example compounds is reported as a PIC50 value in Table A.

Setting [1] is: compounds pre-incubated with the IL-17A for 24 h at room temperature.
[2] abbreviates: compounds pre-incubated with the IL-17A for 30 min (indicated by * in Table A).

Where two headings read alike, the source gives them in different places.

Regarding `Cn1nccc1C(=O)N[C@H](C(=O)Nc1ccc(-c2ccncc2Cl)cc1)C(c1ccccc1)c1ccccc1` [Example 2, (S)—N-(1-((4-(3-chloropyridin-4-yl)phenyl)amino)-1-oxo-3,3-diphenylpropan-2-yl)-1-methyl-1H-pyrazole-5-carboxamide], the IC50 under setting [1] was 31.6 nM.

In the case of `COc1cncc(F)c1-c1ccc(NC(=O)[C@@H](NC(=O)c2ccnn2C)C(c2ccccc2)c2ccccc2)cc1F` [Example 18, N-((2S)-1-((3-fluoro-4-(3-fluoro-5-methoxypyridin-4-yl)phenyl)amino)-1-oxo-3,3-diphenylpropan-2-yl)-1-methyl-1H-pyrazole-5-carboxamide], under setting [1], the IC50 was 31.6 nM. For `Cc1ncc(C)c(-c2ccc(NC(=O)[C@@H](NC(=O)c3ccnn3C)C(c3ccccc3)c3ccccc3)cc2)n1` [Example 37, (S)—N-(1-((4-(2,5-dimethylpyrimidin-4-yl)phenyl)amino)-1-oxo-3,3-diphenylpropan-2-yl)-1-methyl-1H-pyrazole-5-carboxamide], the IC50 under setting [1] was 39.8 nM. On to `Cn1nccc1C(=O)N[C@H](C(=O)Nc1ccc(-c2cc[n+]([O-])cc2CC(=O)N2CCCC2)cc1)C(c1ccccc1)c1ccccc1` [Example 79, (S)-4-(4-(2-(1-methyl-1H-pyrazole-5-carboxamido)-3,3-diphenylpropanamido)phenyl)-3-(2-oxo-2-(pyrrolidin-1-yl)ethyl)pyridine 1-oxide], for which, under setting [1], the IC50 was 251 nM. Regarding `Cn1nccc1C(=O)N[C@H](C(=O)Nc1ccc(-c2cnc(=O)n(C)c2)c(F)c1)C(c1ccccc1)c1ccccc1` [Example 63, (S)—N-(1-((3-fluoro-4-(1-methyl-2-oxo-1,2-dihydropyrimidin-5-yl)phenyl)amino)-1-oxo-3,3-diphenylpropan-2-yl)-1-methyl-1H-pyrazole-5-carboxamide], the IC50 under setting [1] was 158 nM. Regarding `Cn1nccc1C(=O)N[C@H](C(=O)Nc1ccc(-c2c[nH]c(=O)c3[nH]ccc23)c(F)c1)C(c1ccccc1)c1ccccc1` [Example 68, (S)—N-(1-((3-fluoro-4-(7-oxo-6,7-dihydro-1H-pyrrolo[2,3-c]pyridin-4-yl)phenyl)amino)-1-oxo-3,3-diphenylpropan-2-yl)-1-methyl-1H-pyrazole-5-carboxamide], the IC50 under setting [1] is 7.94 nM. Consider `Cn1nccc1C(=O)N[C@H](C(=O)Nc1ccc(-c2c(C(F)(F)F)cnn2C)cn1)[C@H]1CC[C@H](C)CC1` [Example 219, 1-methyl-N—((S)-2-((5-(1-methyl-4-(trifluoromethyl)-1H-pyrazol-5-yl)pyridin-2-yl)amino)-1-((1r,4S)-4-methylcyclohexyl)-2-oxoethyl)-1H-pyrazole-5-carboxamide], for which the IC50 under setting [2] is 126 nM. As to `CCc1nocc1C(=O)N[C@H](C(=O)Nc1ncc(-c2c(C)noc2C)cc1F)C1CCCCCC1` [Example 164, (S)—N-(1-cycloheptyl-2-((5-(3,5-dimethylisoxazol-4-yl)-3-fluoropyridin-2-yl)amino)-2-oxoethyl)-3-ethylisoxazole-4-carboxamide], under setting [2], the IC50 was 63.1 nM.

Turning to `Cn1nccc1C(=O)N[C@H](C(=O)Nc1ccc(-c2c(Cl)cnn2C)cn1)C1CCCCCC1` [Example 174, (S)—N-(2-((5-(4-chloro-1-methyl-1H-pyrazol-5-yl)pyridin-2-yl)amino)-1-cycloheptyl-2-oxoethyl)-1-methyl-1H-pyrazole-5-carboxamide], under setting [2], the IC50 was 158 nM. With `COc1cnccc1-c1ccc(NC(=O)[C@@H](NC(=O)c2ccnn2C)C(c2ccccc2)c2ccccc2)cc1OC` [Example 47, (S)—N-(1-((3-methoxy-4-(3-methoxypyridin-4-yl)phenyl)amino)-1-oxo-3,3-diphenylpropan-2-yl)-1-methyl-1H-pyrazole-5-carboxamide], the IC50 under setting [1] was 25.1 nM.

As for `COc1cncc(OC)c1-c1ccc(NC(=O)[C@@H](NC(=O)c2ccnn2C)C(c2ccccc2)c2ccccc2)cc1` [Example 9, (S)—N-(1-((4-(3,5-dimethoxypyridin-4-yl)phenyl)amino)-1-oxo-3,3-diphenylpropan-2-yl)-1-methyl-1H-pyrazole-5-carboxamide], under setting [1], the IC50 was 6.31 nM. With `Cc1cncc(C)c1-c1ccc(NC(=O)[C@@H](NC(=O)c2ccnn2C)C2CCC(C)(C)CC2)cc1` (single isomer, unassigned) [Example 100], under setting [2], the IC50 was 200 nM. With `Cc1noc(C)c1-c1ccc(NC(=O)[C@@H](NC(=O)c2ccnn2C(C)C)[C@H]2CC[C@H](C)CC2)nc1` [Example 110, N—((S)-2-((5-(3,5-dimethylisoxazol-4-yl)pyridin-2-yl)amino)-1-((1r,4S)-4-methylcyclohexyl)-2-oxoethyl)-1-isopropyl-1H-pyrazole-5-carboxamide], the IC50 under setting [2] was 79.4 nM.

In the case of `Cc1cnn(C)c1-c1ccc(NC(=O)[C@@H](NC(=O)c2conc2C(C)(C)C)[C@H]2CC[C@H](C)CC2)nc1` [Example 192, 3-(tert-butyl)-N—((S)-2-((5-(1,4-dimethyl-1H-pyrazol-5-yl)pyridin-2-yl)amino)-1-((1r,4S)-4-methylcyclohexyl)-2-oxoethyl)isoxazole-4-carboxamide], the IC50 under setting [2] is 200 nM. As to `Cc1cc(=O)n(C)cc1-c1ccc(NC(=O)[C@@H](NC(=O)c2ccnn2C)C(c2ccccc2)c2ccccc2)cc1F` [Example 17, (S)—N-(1-((4-(1,4-dimethyl-6-oxo-1,6-dihydropyridin-3-yl)-3-fluorophenyl)amino)-1-oxo-3,3-diphenylpropan-2-yl)-1-methyl-1H-pyrazole-5-carboxamide], the IC50 under setting [1] was 15.8 nM. For `Cn1nccc1C(=O)N[C@H](C(=O)Nc1ccc(-c2cn(C)c(=O)c3[nH]ncc23)c(F)c1)C(c1ccccc1)c1ccccc1` [Example 75, (S)—N-(1-((3-fluoro-4-(6-methyl-7-oxo-6,7-dihydro-1H-pyrazolo[3,4-c]pyridin-4-yl)phenyl)amino)-1-oxo-3,3-diphenylpropan-2-yl)-1-methyl-1H-pyrazole-5-carboxamide], under setting [1], the IC50 was 31.6 nM. For the molecule `Cc1n[nH]c(C)c1-c1ccc(NC(=O)[C@@H](NC(=O)c2ccnn2C)[C@H]2CC[C@H](C)CC2)cc1` [Example 84, N—((S)-2-((4-(3,5-Dimethyl-1H-pyrazol-4-yl)phenyl)amino)-1-((1r,4S)-4-methylcyclohexyl)-2-oxoethyl)-1-methyl-1H-pyrazole-5-carboxamide], the IC50 under setting [1] was 31.6 nM.

In the case of `Cc1noc(C)c1-c1ncc(NC(=O)[C@@H](NC(=O)c2ccnn2C)[C@H]2CC[C@H](C)CC2)cn1` [Example 135, N—((S)-2-((2-(3,5-dimethylisoxazol-4-yl)pyrimidin-5-yl)amino)-1-((1r,4S)-4-methylcyclohexyl)-2-oxoethyl)-1-methyl-1H-pyrazole-5-carboxamide], the IC50 under setting [2] was 398 nM. Take `CCn1nccc1C(=O)N[C@H](C(=O)Nc1ccc(-c2c(CO)cnn2C)cn1)[C@H]1CC[C@H](C)CC1` [Example 205, 1-ethyl-N—((S)-2-((5-(4-(hydroxymethyl)-1-methyl-1H-pyrazol-5-yl)pyridin-2-yl)amino)-1-((1r,4S)-4-methylcyclohexyl)-2-oxoethyl)-1H-pyrazole-5-carboxamide]: under setting [2], the IC50 was 251 nM. As for `CCn1nccc1C(=O)N[C@H](C(=O)Nc1ccc(-c2c(C)cnn2C)cn1)[C@H]1CC[C@H](C)CC1` [Example 126, N—((S)-2-((5-(1,4-Dimethyl-1H-pyrazol-5-yl)pyridin-2-yl)amino)-1-((1r,4S)-4-methylcyclohexyl)-2-oxoethyl)-1-ethyl-1H-pyrazole-5-carboxamide], under setting [2], the IC50 was 50.1 nM. As for `Cc1cc(NC(=O)[C@@H](NC(=O)c2ccnn2C)[C@H]2CC[C@H](C)CC2)ncc1-c1ccnn1C` [Example 146, 1-methyl-N—((S)-2-((4-methyl-5-(1-methyl-1H-pyrazol-5-yl)pyridin-2-yl)amino)-1-((1r,4S)-4-methylcyclohexyl)-2-oxoethyl)-1H-pyrazole-5-carboxamide], the IC50 under setting [2] was 501 nM. Regarding `Cc1nocc1C(=O)N[C@H](C(=O)Nc1ccc(-c2c(C)noc2C)cn1)C1CCCCCC1` [Example 116, (S)—N-(1-Cycloheptyl-2-((5-(3,5-dimethylisoxazol-4-yl)pyridin-2-yl)amino)-2-oxoethyl)-3-methylisoxazole-4-carboxamide], the IC50 under setting [2] is 63.1 nM.

For the molecule `CCc1nocc1C(=O)N[C@H](C(=O)Nc1ccc(-c2c(C)cnn2C)nc1)[C@H]1CC[C@H](C)CC1` [Example 155, N—((S)-2-((6-(1,4-dimethyl-1H-pyrazol-5-yl)pyridin-3-yl)amino)-1-((1r,4S)-4-methylcyclohexyl)-2-oxoethyl)-3-ethylisoxazole-4-carboxamide], under setting [2], the IC50 is 100 nM.
